Tests used:
[1] = cited from earlier work
[2] = 20° C.; cited from earlier work
[3] = test system: patients diagnosed with a cervical disc hernia; experiment: Regional injections of ozone and PRP in cervical disc hernia, VAS pain score; assay type: in vivo, human; conditions: 8 sessions of ozone, 2 sessions of PRP, 66 patients, 9.3 at the beginning
Description: Cervical disc and spinal disc hernias are one of the common health issues. In the studies we conduct on 66 patients diagnosed with a cervical disc hernia, the pain score is evaluated according to the VAS in 1 month, 4 months and 1 year after the regional injections of 8 sessions of ozone, 2 sessions of PRP. The pain score was 9.3 at the beginning, 6.9 in the first month, 4.8 in the 4th month and 3.6 at the end of the first year. It is also found in the literature that the regional injections of ozone are so effective. However, to perform these applications, there is a need for a clinic or a hospital where ozone treatment is offered. The dosages of solutions of ozonized oil or ozonides in water in regional applications are also applicable here. Depending on the size of the region, the ozonized oil or ozonide solution of 2-4 mg (2000-4000 ppm), which is made with ozonides comprising 10% ozone may be injected into paravertebral muscles and subcutaneous tissue to be able to benefit from anti-inflammatory and analgesic effects. However, with tissue oxygenation, dissolution of muscle spasm, and increased blood supply to the hernia, a long-acting treatment and shrinking of the hernia is provided.

knees of patients = experiment: Intra-articular ozone and PRP treatment of knees, VAS scores; assay type: in vivo, human; conditions: 8 sessions of ozone and 2 sessions of PRP, 187 knees of 100 patients, baseline 8.5
Source text: Ozone gas injection may cause short-term burning and itching. However, this effect is rarely seen in intramuscular injections. For this reason, ozonide solutions comprising local anesthetic should be preferred especially if superficial injection will be performed. […] It is known that it prevents loss of cartilage by increasing oxygenation of the joint cartilage and reduces pain due to the analgesic effect with its anti-inflammatory effect. There are many publications in the literature about this issue. Similarly, in our own research, it was observed that VAS scores decreased from 8.5 to 4 on average as a result of the application of 8 sessions of ozone and 2 sessions of PRP treatment on 187 knees of 100 patients. In these applications, 20 micrograms of ozone are given as 20 ml (cc). That is, 400 micrograms of ozone have been applied. […] It can be applied at most twice a week. In addition, it can be combined with local anesthetic and anti-inflammatory agents. Vitamin E, which becomes popular in experimental studies in recent years, can be applied together with oil solutions and anti-inflammatory drugs. Hyaluronic acid is known to increase cartilage matrix in the intraarticular injection. It is known that better results are obtained with the ozone treatment and hyaluronic acid combinations. […]

## CCN(CC)CC(=O)Nc1c(C)cccc1C [Lidocaine]
[1]; normal injection
  duration of effect in the injection zone: up to 2 hours

## CCCCN1CCCCC1C(=O)Nc1c(C)cccc1C (stereo not shown) [bupivacaine]
[1]; injection in oil
  duration of local effect: 72 h

## O=[O+][O-] [ozone]
[2]
  half life: 40 min
[3]
  VAS pain score at the end of the first year: 3.6
  VAS pain score in the 4th month: 4.8
  VAS pain score in the first month: 6.9
Knees of patients
  VAS score after treatment, average: 4

Source: US20210007360A1, “SOLUTIONS COMPRISING OZONIZED OIL” (priority 2018, published 2021)
